Assay type in all cases: functional, cell-based
Assay [1] relates to HepG2. The experiment in a line: Cytotoxicity against human HepG2 cells by MTT assay. (In general: Tetrazolium dyes change colour on reduction, which living cells bring about.)
Assay [2] concerns A549. The experiment in a line: Cytotoxicity against human A549 cells by MTT assay.
For assay [3], the system named is MDA-MB-231. The experiment in a line: Cytotoxicity against human MDA-MB-231 cells by MTT assay.
In assay [4] the test system is MCF7. The experiment in a line: Cytotoxicity against human MCF7 cells by MTT assay.

Values after ≈ are worked out from the molar mass of the structure shown.

Usually IC50 stands for the midpoint of a concentration-inhibition curve. As for `C=C(CC[C@@H](C)[C@H]1CC[C@@H]([C@@H]2CC[C@H]3C[C@@H](O)CC[C@]3(C)C2=O)[C@]1(C)CCO)C(C)C`, the IC50 in assay [1] was 8.2 µg/mL (≈ 19 µM); in assay [2], 9.8 µg/mL (≈ 22.6 µM); in assay [3], 11.3 µg/mL (≈ 26.1 µM); in assay [4], 9.2 µg/mL (≈ 21.3 µM).
The like results for `C=C(CC[C@@H](C)[C@H]1CC[C@@H]([C@@H]2CC=C3C[C@@H](O)CC[C@]3(C)C2=O)[C@]1(C)CCO)C(C)C` were, in that order, 9.1 µg/mL (≈ 21.1 µM), 9.1 µg/mL (≈ 21.1 µM), 9.9 µg/mL (≈ 23 µM) and 4.5 µg/mL (≈ 10.4 µM).
The like results for `CC(C)C(C)CC[C@@H](C)[C@H]1CC[C@@H]([C@@H]2CC=C3C[C@@H](O)CC[C@]3(C)C2=O)[C@]1(C)CCO` (stereo not given in full) were, in that order, 14.1 µg/mL (≈ 32.6 µM), 16.8 µg/mL (≈ 38.8 µM), 15 µg/mL (≈ 34.7 µM) and 15.7 µg/mL (≈ 36.3 µM).
`COc1cccc2c1C(=O)c1c(O)c3c(c(O)c1C2=O)C[C@@](O)(C(=O)CO)C[C@@H]3O[C@H]1C[C@H](N)[C@H](O)[C@H](C)O1` [DOXORUBICIN]: the IC50 amounted to 0.3 µg/mL (≈ 0.552 µM) in assay [1], 0.4 µg/mL (≈ 0.736 µM) in assay [2] and 0.4 µg/mL (≈ 0.736 µM) in assay [4].

Values taken from ChEMBL document CHEMBL1157957, “9,11-Secosterols from the soft corals Sinularia lochmodes and Sinularia leptoclados” (J Nat Prod, 2006).
